From US20240418701A1, “SINGLE MOLECULE IDEN[…] A REACTIVE HETERO-NANOPORE” (priority 2021, published 2024) come the findings set out here.

Assay [1] addresses M2 MspA (Mycolicibacterium smegmatis, UniProt A0QR29, D117N/D118N/D120N/D145R/D161R/E166K). In words: NMP sensing performed with M2 MspA (control without PBA). It counts as binding, Mycobacterium smegmatis. As to conditions: NMP 1 mM in cis, +200 mV. On the procedure: FIG. 44: NMP sensing performed with M2 MspA. (a-d) Representative traces of (a) CMP, (b) UMP, (c) AMP, (d) GMP sensing performed with M2 MspA. All measurements were carried out as described in Methods in Example 2 in a 1.5 M KCl buffer (1.5 M KCl, 10 mM MOPS, pH 7.0). A +200 mV bias was continually applied. NMPs were added to cis with a final concentration of 1 mM for each analyte.
(§1) NMPs consist of a ribose, a phosphate group and a nucleobase, serving as monomeric units of RNA. […] Experimentally, single channel recording was performed using MspA-PBA in a 1.5 M KCl buffer (1.5 M KCl, 10 mM MOPS, pH 7.0) (Methods in Example 2). A transmembrane potential of +200 mV was continually applied. Four canonical NMPs, adenine mononucleotide (AMP), guanine mononucleotide (GMP), cytosine mononucleotide (CMP) and uracil mononucleotide (UMP) were tested as analytes (FIG. 33d). Either type of NMP was added to cis at a final concentration of 300 μM. Subsequently, successive resistive pulses caused by either type of NMP were immediately observed (FIG. 33d). However, no events were observed when M2 MspA was tested, confirming that the PBA located at the pore constriction is critical in the generation of NMP sensing events (FIG. 44). At this condition, ˜1800 events/h were obtained from each pore. The pore could normally withstand a few hours of continuous measurement. Deoxyribonucleoside monophosphate (dNMP) fails to report any event when sensed by MspA-PBA (FIG. 45). This is expected because dNMPs have no cis-diol structure and can't form the boronate ester which is necessary for sensing. The molecular mechanism of sensing which results from reversible covalent bond formation between an NMP and the PBA at the pore constriction is thus confirmed.

For assay [2], the target named is T1, MspA-PBA (phenylboronic acid modified hetero-octameric (N90C)1(M2)7 MspA) (Mycolicibacterium smegmatis, UniProt A0QR29, D117C/D118N/D120N/D145R/D161R/E166K).
T1 construct: H6 (hexa-histidine) (C); 3-(maleimide) phenylboronic acid (MPBA) adduct on the thiol of Cys90; made in house; host or cells: E. coli BL21 (DE3) pLysS, co-expression from pETDuet-1
It counts as binding, Mycobacterium smegmatis. As to conditions: for % Ib (percentage blockage) / S.D. (noise amplitude of blockage level) / τoff (mean dwell time) / τon (mean inter-event interval): N=3; for Calibration coefficient δ (NMP binding events per unit concentration per min): sole NMP 300 μM in cis. How it is done: FIG. 46: Definition of event parameters. […] The measurement was carried out as described in Methods in Example 2. The chambers were filled with a 1.5 M KCl buffer (1.5 M KCl, 10 mM MOPS, pH 7.0). A transmembrane potential of +200 mV was continually applied. AMP was added to cis with a final concentration of 300 μM. The open pore current (Ip), the residual current (Ib), the dwell time (τoff) and the inter-event duration (τon) are defined as marked on the trace. The percentage blockage (% Ib) is defined as (Ip−Ib)/Ip. The noise amplitude (S.D.) is defined as the standard deviation of the blockage level.
as §1
To describe NMP sensing events quantitatively, the event dwell time (τoff), the inter-event interval (τon), the percentage blockage (% Ib=(Ip−Ib)/Ip) and the noise amplitude (S.D.) were derived as described in FIG. 46. Generally, the histograms of τoff and τon show an exponential distribution, and could be fitted to derive the mean time constants τoff or τon, respectively. The histograms of % Ib and S.D. show a Gaussian distribution, which could be fitted to derive the mean percentage blockage % Ib and S.D., respectively. During NMP sensing, by varying the NMP concentrations in cis, the reciprocal of dwell time (1/τoff) remains constant, consistent with a unimolecular dissociation mechanism. Whereas the reciprocal of the inter-event interval (1/τon) linearly correlates with the NMP concentration in cis (Tables 8-11, FIG. 47-50), consistent with a bimolecular model. The dependence of the applied voltage during NMP sensing was investigated using AMP as a representative analyte. […] This is expected because in a pH 7.0 buffer, the phosphate group of NMP is negatively charged and the electrophoretic force applied on the NMP analyte can strongly regulate the rate of event appearance and the event dwell time.

[3] abbreviates: NMP 100 μM in cis, +200 mV, three independent measurements.
Setting [4] is: NMP 200 μM in cis, +200 mV, three independent measurements.
[5] abbreviates: NMP 300 μM in cis, +200 mV, three independent measurements.
Where [6] appears, read: NMP 400 μM in cis, +200 mV, three independent measurements.
[7] abbreviates: NMP 500 μM in cis, +200 mV, three independent measurements.
Where [8] appears, read: +200 mV, three independent measurements.
Where [9] appears, read: voltage series: +40 mV, AMP 500 μM in cis.
Setting [10] is: voltage series: +80 mV, AMP 500 μM in cis.
Setting [11] is: voltage series: +120 mV, AMP 500 μM in cis.
Where [12] appears, read: voltage series: +160 mV, AMP 500 μM in cis.
Setting [13] is: voltage series: +200 mV, AMP 500 μM in cis.

Each structure is given as a SMILES string. Like-named read-outs stand apart in the source and are kept apart here.

M2 MspA, sequence (A0QR29 28-211 D117N/D118N/D120N/D145R/D161R/E166K): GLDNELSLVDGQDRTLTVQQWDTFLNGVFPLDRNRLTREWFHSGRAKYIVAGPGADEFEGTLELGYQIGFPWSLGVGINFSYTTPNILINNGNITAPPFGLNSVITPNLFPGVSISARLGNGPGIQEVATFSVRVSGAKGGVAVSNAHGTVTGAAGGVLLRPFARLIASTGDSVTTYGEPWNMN

For `Nc1ncnc2c1ncn2[C@@H]1O[C@H](COP(=O)(O)O)[C@@H](O)[C@H]1O` [AMP, adenosine-5′-monophosphate], in assay [1], the “binding events with M2 MspA” value was “No binding events were observed”. The 1/τoff in assay [2] (setting [3]) was 14.9 ± 0.5 s⁻¹; in assay [2] (setting [4]), 15.1 ± 0.2 s⁻¹; in assay [2] (setting [5]), 13.8 ± 0.4 s⁻¹; in assay [2] (setting [6]), 14.6 ± 1.1 s⁻¹; in assay [2] (setting [7]), 14.4 ± 1.8 s⁻¹; in assay [2] (setting [9]), 30.5 ± 1.7 s⁻¹. The 1/τoff in assay [2] (setting [10]) was 27.6 ± 1.9 s⁻¹; in assay [2] (setting [11]) it was 24.2 ± 2.1 s⁻¹; in assay [2] (setting [12]), 18.0 ± 1.4 s⁻¹; in assay [2] (setting [13]), 14.5 ± 1.8 s⁻¹. Further, the 1/τon came out at 0.54 ± 0.11 s⁻¹ in assay [2] (setting [3]); 0.82 ± 0.05 s⁻¹ in assay [2] (setting [4]); 1.03 ± 0.11 s⁻¹ in assay [2] (setting [5]); 1.19 ± 0.08 s⁻¹ in assay [2] (setting [6]); 1.39 ± 0.07 s⁻¹ in assay [2] (setting [7]); 0.45 ± 0.03 s⁻¹ in assay [2] (setting [9]). The 1/τon in assay [2] (setting [10]) worked out at 0.71 ± 0.12 s⁻¹; in assay [2] (setting [11]) it was 1.13 ± 0.08 s⁻¹; in assay [2] (setting [12]) it was 1.23 ± 0.11 s⁻¹; in assay [2] (setting [13]), 1.38 ± 0.08 s⁻¹. The “% Ib (percentage blockage)” value in assay [2] (NMP 300 μM in cis, +200 mV) is reported as 10.89±0.14%; in assay [2] (NMP 300 μM in cis, +200 mV, listed as A), 10.89 ± 0.14%. Moreover, the “S.D. (noise amplitude of blockage level)” value in assay [2] (NMP 300 μM in cis, +200 mV) is 3.14 ± 0.14 pA. Besides, the “τoff (mean dwell time)” value in assay [2] (NMP 300 μM in cis, +200 mV) was found to be 72.76 ± 2.07 ms. Moreover, the “τon (mean inter-event interval)” value in assay [2] (NMP 300 μM in cis, +200 mV) is on record as 979.5 ± 106.1 ms. Moreover, in assay [2] (analyte 1 mM in cis, +200 mV), the “sensing events with MspA-PBA” value was “Successive appearance of AMP sensing events was observed”. Besides, the “Calibration coefficient δ (NMP binding events per unit concentration per min)” value in assay [2] (setting [8]) was 0.21 ± 0.02 µM⁻¹ min⁻¹.
Regarding `Nc1ccn([C@@H]2O[C@H](COP(=O)(O)O)[C@@H](O)[C@H]2O)c(=O)n1` [CMP, Cytidine-5′-monophosphate], the “binding events with M2 MspA” value in assay [1] was “No binding events were observed”. For the same compound, the 1/τoff in assay [2] (setting [3]) is 19.0 ± 1.9 s⁻¹; in assay [2] (setting [4]), 20.9 ± 0.3 s⁻¹; in assay [2] (setting [5]) it was 21.0 ± 0.4 s⁻¹; in assay [2] (setting [6]), 20.5 ± 0.6 s⁻¹; in assay [2] (setting [7]) it was 20.6 ± 1.1 s⁻¹. Besides, the 1/τon was 0.30 ± 0.06 s⁻¹ in assay [2] (setting [3]); 0.47 ± 0.05 s⁻¹ in assay [2] (setting [4]); 0.66 ± 0.05 s⁻¹ in assay [2] (setting [5]); 0.86 ± 0.05 s⁻¹ in assay [2] (setting [6]); 1.01 ± 0.13 s⁻¹ in assay [2] (setting [7]). Moreover, the “% Ib (percentage blockage)” value in assay [2] (NMP 300 μM in cis, +200 mV) came to 7.1±0.2%; in assay [2] (NMP 300 μM in cis, +200 mV, listed as C), 7.1 ± 0.2%. Moreover, in assay [2] (NMP 300 μM in cis, +200 mV), the “S.D. (noise amplitude of blockage level)” value was 3.23 ± 0.09 pA. The “τoff (mean dwell time)” value in assay [2] (NMP 300 μM in cis, +200 mV) amounted to 47.6 ± 0.9 ms. The “τon (mean inter-event interval)” value in assay [2] (NMP 300 μM in cis, +200 mV) is on record as 1511.6 ± 108.3 ms. In assay [2] (setting [8]), the “Calibration coefficient δ (NMP binding events per unit concentration per min)” value came out at 0.133 ± 0.010 µM⁻¹ min⁻¹.
Consider `Nc1nc2c(ncn2[C@@H]2O[C@H](COP(=O)(O)O)[C@@H](O)[C@H]2O)c(=O)[nH]1` [GMP, guanosine-5′-monophosphate], for which, in assay [1], the “binding events with M2 MspA” value is reported as “No binding events were observed”. Besides, the 1/τoff in assay [2] (setting [3]) was found to be 11.5 ± 0.9 s⁻¹; in assay [2] (setting [4]) it was 10.6 ± 1.4 s⁻¹; in assay [2] (setting [5]), 10.5 ± 1.1 s⁻¹; in assay [2] (setting [6]), 10.2 ± 0.2 s⁻¹; in assay [2] (setting [7]), 11.4 ± 1.3 s⁻¹. Further, the 1/τon is 0.02 ± 0.07 s⁻¹ in assay [2] (setting [3]); 0.50 ± 0.12 s⁻¹ in assay [2] (setting [4]); 0.68 ± 0.02 s⁻¹ in assay [2] (setting [5]); 0.83 ± 0.04 s⁻¹ in assay [2] (setting [6]); 1.00 ± 0.04 s⁻¹ in assay [2] (setting [7]). Further, the “% Ib (percentage blockage)” value in assay [2] (NMP 300 μM in cis, +200 mV) is 11.8±0.2%; in assay [2] (NMP 300 μM in cis, +200 mV, listed as G) it was 11.8 ± 0.2%. Also, the “S.D. (noise amplitude of blockage level)” value in assay [2] (NMP 300 μM in cis, +200 mV) was determined as 3.02 ± 0.13 pA. The “τoff (mean dwell time)” value in assay [2] (NMP 300 μM in cis, +200 mV) is 96.3 ± 10.4 ms. Moreover, the “τon (mean inter-event interval)” value in assay [2] (NMP 300 μM in cis, +200 mV) was determined as 1473.1 ± 44.4 ms. The “Calibration coefficient δ (NMP binding events per unit concentration per min)” value in assay [2] (setting [8]) stood at 0.136 ± 0.004 µM⁻¹ min⁻¹.
With `O=c1ccn([C@@H]2O[C@H](COP(=O)(O)O)[C@@H](O)[C@H]2O)c(=O)[nH]1` [UMP, uridine-5′-monophosphate], the “binding events with M2 MspA” value in assay [1] was “No binding events were observed”. In addition, the 1/τoff in assay [2] (setting [3]) turned out to be 7.8 ± 0.9 s⁻¹; in assay [2] (setting [4]) it was 7.4 ± 1.4 s⁻¹; in assay [2] (setting [5]), 7.7 ± 0.9 s⁻¹; in assay [2] (setting [6]) it was 8.2 ± 0.4 s⁻¹; in assay [2] (setting [7]), 8.7 ± 0.4 s⁻¹. The 1/τon worked out at 0.28 ± 0.08 s⁻¹ in assay [2] (setting [3]); 0.36 ± 0.02 s⁻¹ in assay [2] (setting [4]); 0.49 ± 0.08 s⁻¹ in assay [2] (setting [5]); 0.56 ± 0.11 s⁻¹ in assay [2] (setting [6]); 0.68 ± 0.09 s⁻¹ in assay [2] (setting [7]). Moreover, the “% Ib (percentage blockage)” value is 8.64±0.09% in assay [2] (NMP 300 μM in cis, +200 mV) and 8.64 ± 0.09% in assay [2] (NMP 300 μM in cis, +200 mV, listed as U). Moreover, the “S.D. (noise amplitude of blockage level)” value in assay [2] (NMP 300 μM in cis, +200 mV) worked out at 2.14 ± 0.06 pA. In assay [2] (NMP 300 μM in cis, +200 mV), the “τoff (mean dwell time)” value is recorded as 130.3 ± 14.8 ms. Also, in assay [2] (NMP 300 μM in cis, +200 mV), the “τon (mean inter-event interval)” value was 2097.9 ± 474.7 ms. Further, the “Calibration coefficient δ (NMP binding events per unit concentration per min)” value in assay [2] (setting [8]) worked out at 0.097 ± 0.014 µM⁻¹ min⁻¹.
